Nine compounds from DBAASP can be followed below.

As usually defined, the MIC is the least concentration at which growth counts as inhibited. A high value points to a need for much substance.

The structures appear in SMILES notation. Converted amounts (≈) assume the structure as drawn.

Common to all, as to assay: ≥ marks a high value that may be exact or a test limit, other limits are often not marked, values filed in µg/mL are converted to µM
Test [1] relates to Pseudomonas aeruginosa PAO1.
For test [2], the system named is Escherichia coli BL21.
The test system of test [3] is Streptococcus pyogenes M1T1 5448.
Test [4] concerns Pseudomonas aeruginosa ATCC 27853.
Test [5] deals with Staphylococcus aureus MR.
Test [6] deals with Staphylococcus aureus ATCC 49476.
The test system of test [7] is Candida albicans.
Test [8] relates to Escherichia coli.
The subject of test [9] is Staphylococcus aureus.
Test [10] has as its system Bifidobacterium longum subsp. infantis.
The test system of test [11] is Pseudomonas aeruginosa Ps4.
For test [12], the system named is Klebsiella pneumoniae ATCC 700603.
Test [13] has as its system Staphylococcus aureus ATCC 43300.
Test [14] has as its system Salmonella enterica ATCC 6539.
The test system of test [15] is Acinetobacter baumannii ATCC BAA-747.
Test [16] deals with Escherichia coli ATCC 25922.
For test [17], the system named is Enterococcus faecium ATCC 700221.
Test [18] concerns Escherichia coli NEB5alpha.
Test [19] relates to Bacillus subtilis ATCC 6051.
Test [20] concerns Klebsiella pneumoniae WGLW2.
Test [21] has as its system Candida albicans ATCC 10231.
The subject of test [22] is Staphylococcus aureus MW2.
Test [23] concerns Acinetobacter baumannii ATCC 7978.
The subject of test [24] is Staphylococcus aureus ATCC 29231.
The subject of test [25] is Cryptococcus neoformans ATCC 32264.
Test [26] has as its system Bacillus subtilis ATCC 6633.
For test [27], the system named is Salmonella enterica subsp. enterica serovar Pullorum CVCC 1809.
Test [28] has as its system Candida albicans CGMCC 2.2411.
Test [29] relates to Streptococcus suis CVCC 606.
Test [30] deals with Pseudomonas aeruginosa CICC 10419.
Test [31] relates to Listeria ivanovii ATCC 19119.
Test [32] has as its system Escherichia coli CVCC 195.
Test [33] relates to Enterococcus faecalis CVCC 3936.
Test [34] relates to Salmonella enterica subsp. enterica serovar Pullorum CVCC 533.
The test system of test [35] is Escherichia coli CVCC 1515.
Test [36] has as its system Salmonella enterica subsp. enterica serovar Typhimurium ATCC 14028.

Take `CC[C@H](C)[C@H](NC(=O)[C@H](Cc1c[nH]c2ccccc12)NC(=O)[C@H](C)NC(=O)[C@H](CCCN=C(N)N)NC(=O)[C@H](CCCCN)NC(=O)CNC(=O)[C@H](CCCCN)NC(=O)[C@H](CCC(=O)O)NC(=O)[C@H](CCC(N)=O)NC(=O)[C@@H](NC(=O)[C@H](CCCCN)NC(=O)[C@H](CCCCN)NC(=O)[C@H](CCCCN)NC(=O)[C@H](CC(C)C)NC(=O)[C@H](CCCN=C(N)N)NC(=O)[C@H](CCC(N)=O)NC(=O)[C@H](Cc1ccccc1)NC(=O)[C@@H](NC(=O)[C@@H](NC(=O)[C@H](CCC(=O)O)NC(=O)[C@H](CCCCN)NC(=O)CNC(=O)[C@H](C)N)[C@@H](C)O)[C@@H](C)CC)[C@@H](C)CC)C(=O)N[C@@H](C)C(=O)N[C@@H](Cc1c[nH]c2ccccc12)C(=O)O` [AGKETIFQRLKKKIQEKGKRAWIAW]: the MIC in test [1] was 32 µM (≈ 96.5 µg/mL); in test [2], 0.0156 µM (≈ 0.047 µg/mL); in test [3], 0.125 µM (≈ 0.377 µg/mL).
On to `CC[C@H](C)[C@H](NC(=O)[C@H](CO)NC(=O)[C@H](Cc1ccccc1)NC(=O)[C@H](CC(C)C)NC(=O)CNC(=O)CNC(=O)[C@@H](NC(=O)[C@@H](NC(=O)[C@H](Cc1cnc[nH]1)NC(=O)[C@H](Cc1cnc[nH]1)NC(=O)[C@@H](NC(=O)[C@@H](N)Cc1ccccc1)[C@@H](C)CC)[C@@H](C)CC)[C@@H](C)CC)C(=O)NCC(=O)N[C@@H](CCCCN)C(=O)N[C@H](C(=O)N[C@H](C(=O)N[C@@H](Cc1cnc[nH]1)C(=O)N[C@@H](CCCN=C(N)N)C(=O)N[C@@H](CC(C)C)C(=O)N[C@H](C(=O)N[C@@H](CCCN=C(N)N)C(=O)N[C@@H](CCCN=C(N)N)C(=O)N[C@@H](CCCN=C(N)N)C(=O)N[C@@H](CCCN=C(N)N)C(=O)N[C@@H](CCCN=C(N)N)C(=O)O)[C@@H](C)CC)[C@@H](C)CC)[C@@H](C)CC` [FIHHIIGGLFSIGKIIHRLIRRRRR], for which the minimal inhibitory concentration (MIC) stood at 167 µM (≈ 512 µg/mL) in [4], 20.9 µM (≈ 64 µg/mL) in [5], 5.22 µM (≈ 16 µg/mL) in [6] and 41.8 µM (≈ 128 µg/mL) in [7].
For `CC(C)C[C@H](NC(=O)[C@H](CC(=O)O)NC(=O)[C@H](CCCCN)NC(=O)[C@@H](N)Cc1ccccc1)C(=O)NCC(=O)N[C@@H](CCC(=O)O)C(=O)N[C@@H](CCC(=O)O)C(=O)N[C@@H](CC(N)=O)C(=O)N[C@@H](Cc1ccccc1)C(=O)N[C@@H](CCCCN)C(=O)O` [FKDLGEENFK], the MIC was 2450 µM (≈ 3000 µg/mL) in [8], 2450 µM (≈ 3000 µg/mL) in test [9] and not below 2450 µM in test [10].
The compound `CC[C@H](C)[C@H](NC(=O)[C@H](CC(N)=O)NC(=O)[C@H](CCCN=C(N)N)NC(=O)[C@H](CCC(N)=O)NC(=O)[C@H](Cc1c[nH]c2ccccc12)NC(=O)[C@@H](N)Cc1ccccc1)C(=O)N[C@@H](CCCN=C(N)N)C(=O)N[C@@H](CCCCN)C(=O)N[C@H](C(=O)N[C@@H](CCCN=C(N)N)C(N)=O)C(C)C` [FWQRNIRKVR] had an MIC in test [11] not below 178 µM.
On to `NCCCC[C@H](NC(=O)CNC(=O)CNC(=O)[C@H](CCCN=C(N)N)NC(=O)[C@H](CS)NC(=O)[C@H](Cc1ccc(O)cc1)NC(=O)[C@H](Cc1c[nH]c2ccccc12)NC(=O)[C@H](CCCN=C(N)N)NC(=O)[C@H](Cc1c[nH]c2ccccc12)NC(=O)[C@H](Cc1cnc[nH]1)NC(=O)CNC(=O)CN)C(N)=O` [GGHWRWYCRGGK], for which the minimum inhibitory concentration (MIC) is 11 µM (≈ 16.1 µg/mL) in test [4]; 11 µM (≈ 16.1 µg/mL) in [12]; 11 µM (≈ 16.1 µg/mL) in test [13]; 1 µM (≈ 1.46 µg/mL) in [14]; 11 µM (≈ 16.1 µg/mL) in [15]; 3 µM (≈ 4.39 µg/mL) in test [16]. Moreover, the MIC in test [17] was determined as 3 µM (≈ 4.39 µg/mL).
Take `CC[C@H](C)[C@H](NC(=O)[C@H](C)NC(=O)CNC(=O)[C@H](CCCCN)NC(=O)[C@H](CCC(=O)O)NC(=O)[C@H](CCC(=O)O)NC(=O)[C@H](CC(=O)O)NC(=O)[C@H](CCC(=O)O)NC(=O)[C@H](CC(N)=O)NC(=O)[C@H](CCCN=C(N)N)NC(=O)CN)C(=O)N[C@H](C(=O)N[C@@H](CCCCN)C(=O)N[C@H](C(=O)N[C@@H](CCCCN)C(=O)NCC(=O)NCC(=O)N[C@@H](CC(C)C)C(=O)O)C(C)C)C(C)C` [GRNEDEEKGAIVKVKGGL]: the minimum inhibitory concentration (MIC) in test [18] and in test [19] was not below 1000 µM in each case.
Regarding `CC[C@H](C)[C@H](NC(=O)[C@H](Cc1c[nH]c2ccccc12)NC(=O)[C@H](CCCCN)NC(=O)[C@@H](N)CC(C)C)C(=O)NCC(=O)N[C@@H](CCCCN)C(=O)N[C@@H](CCCCN)C(=O)N[C@H](C(=O)N[C@@H](Cc1c[nH]c2ccccc12)C(=O)N[C@@H](CCCN=C(N)N)C(=O)N[C@H](C(=O)NCC(=O)N[C@@H](Cc1c[nH]c2ccccc12)C(=O)N[C@@H](CC(N)=O)C(=O)N[C@@H](Cc1c[nH]c2ccccc12)C(=O)N[C@@H](CCCN=C(N)N)C(=O)O)C(C)C)[C@@H](C)CC` [LKWIGKKIWRVGWNWR], the MIC in test [20] is not below 60.2 µM; in test [21], 60.2 µM (≈ 128 µg/mL); in test [22], 30.1 µM (≈ 64 µg/mL); in test [23], 15.1 µM (≈ 32 µg/mL); in test [24], not below 60.2 µM.
Take `NCCCC[C@H](NC(=O)[C@H](CCCCN)NC(=O)[C@H](Cc1c[nH]c2ccccc12)NC(=O)[C@H](CCCCN)NC(=O)[C@H](CCCN=C(N)N)NC(=O)[C@H](CCCN=C(N)N)NC(=O)[C@H](CCCCN)NC(=O)[C@@H](N)CCCN=C(N)N)C(N)=O` [RKRRKWKK]: the minimal inhibitory concentration (MIC) in [25] was not below 200 µM.
In the case of `CC(C)[C@H](NC(=O)[C@H](CCCCN)NC(=O)[C@H](Cc1c[nH]c2ccccc12)NC(=O)[C@H](CCCN=C(N)N)NC(=O)CNC(=O)[C@H](CCC(N)=O)NC(=O)[C@@H](NC(=O)[C@@H](N)CCCN=C(N)N)C(C)C)C(=O)N[C@@H](CCCN=C(N)N)C(=O)N[C@@H](C)C(=O)N[C@@H](CO)C(=O)N[C@@H](Cc1ccccc1)C(=O)N[C@@H](Cc1ccccc1)C(=O)N[C@@H](CCCCN)C(=O)O` [RVQGRWKVRASFFK], the MIC in [26] was 18.1 µM (≈ 32 µg/mL); in [27], 9.06 µM (≈ 16 µg/mL); in test [28], not below 36.3 µM; in test [29], not below 36.3 µM; in test [30], not below 36.3 µM; in test [31], 4.53 µM (≈ 8 µg/mL). Also, the MIC in test [32] came out at 4.53 µM (≈ 8 µg/mL); in [33], 18.1 µM (≈ 32 µg/mL); in test [34], 18.1 µM (≈ 32 µg/mL); in test [35], 4.53 µM (≈ 8 µg/mL); in test [13], 36.3 µM (≈ 64 µg/mL); in [36], 9.06 µM (≈ 16 µg/mL).
